Here are results for one compound from publication PMC5063576, “High Potency VEGFRs/MET/FMS Triple Blockade by TAS-115 Concomitantly Suppresses Tumor Progression and Bone Destruction in Tumor-Induced Bone Disease Model with Lung Carcinoma Cells” (PLoS ONE, 2016).

The target in one test is VEGFR2 (Homo sapiens, UniProt P35968). Kind of test: In vitro kinase assay, VEGFR2. In kind it is biochemical. Conditions: assay as described previously [16]. Here is the method:
(§1) Enzyme inhibition studies were performed using LANCE® Ultra TR-FRET assay technology. Briefly, 0.03 μg/mL dephospho-rhFMS and 100 nM ULightTM-poly GT (4:1) (PerkinElmer) were mixed and incubated for 40 min at 25°C in 10 μL of reaction mixture containing 100 μM ATP, 15 mM tris (hydroxymethyl) aminomethane (Tris (pH 7.5)), 0.01% (v/v) Tween 20, 5 mM MgCl2, 2 mM dithiothreitol and various concentrations of the test compound. […] By referring to the TR-FRET signals of positive (no inhibitor) and negative (EDTA was added before the reaction was started) control wells, the percent inhibition of each well was calculated and the half-maximal inhibitory concentration (IC50) value was determined using a four-parameter sigmoidal equation. The assay of MET and VEGFR2 kinase activity was performed as described previously.

In test [1] the test system is VEGFR2 phosphorylation in MDBMs. Kind of test: In vitro MDBM signaling, rhVEGF-induced VEGFR2 phosphorylation. In kind it is cell-based, mouse. Conditions: rhVEGF 100 ng/mL 5 min, immunoprecipitation and Western blotting. The procedure:
(§2) For analysis of the expression and phosphorylation levels of FMS, MET and VEGFR2, MDBMs were cultured with hM-CSF (20000 U/mL) for 4 days (400000 cells/dish in Suspension Culture Dishes (Corning Inc., NY). The phosphorylation levels of FMS and downstream signaling molecules were then analyzed in these MDBMs following incubation for 1 hr with test compounds at the indicated concentration. The phosphorylation of MET or VEGFR2 was analyzed in these MDBMs following stimulation with rhHGF (100 ng/mL, 10 min) or rhVEGF (100 ng/mL, 5 min), respectively. After incubation, the MDBMs were harvested, the cells were lysed and target signaling proteins were detected by immunoblotting. For analysis of VEGFR2 and its phosphorylated form, the lysate was immunoprecipiated with an anti-VEGFR antibody prior to immunoblotting.
Background: Immunoblotting shows a protein as a band on a membrane.

Test [2] concerns FMS, ERK1/2 and AKT phosphorylation in MDBMs. Kind of test: In vitro MDBM signaling, M-CSF-stimulated FMS phosphorylation. In kind it is cell-based, mouse. Conditions: 1 hr incubation, Western blotting. The procedure: as §2
Test [3] deals with TRAP-positive osteoclasts at tumor-bone boundary. Kind of test: TRAP staining of A549-Luc-BM1-implanted tibiae, osteoclast number. In kind it is in vivo, BALB/c nude mice. Conditions: 2 weeks oral; TAS-115 200, cabozantinib 15, sunitinib 40, crizotinib 100 mg/kg, combination; vs control. Here is the method: On day 15, the mice were euthanized by cervical dislocation under isoflurane anesthesia, and their tibiae were collected. For CD31 staining, frozen sections (3 μm thick) were prepared using Kawamoto’s film method. Purified Rat Anti-Mouse CD31 (1:100, BD Pharmingen^TM) was detected using Simple Stain^TM Mouse MAX PO (Rat) (Nichirei) and 3,3’-diaminobenzidine (Dako, Glostrup, Denmark). For Ki-67 and TRAP staining, formalin-fixed paraffin-embedded sections (2 μm thick) were prepared. Anti-human Ki-67 Rabbit Monoclonal Antibody (1:50, Epitomics) was detected using the EnVisionTM^+ System (Dako). TRAP staining was performed using the TRAP/ALP Stain Kit (Wako Pure chemical Industries, Ltd.). To quantify each staining, whole slides were scanned under 20× magnification with the Aperio Scan-Scope XT Slide Scanner (Aperio Technologies, Inc., CA). To quantify CD31-positive microvessels as microvessel density (MVD, number/mm^2), four fields of tumor area per section excluding bone and necrotic tissue were analyzed by using Image-Pro Plus (Media Cybernetics, Inc., Carlsbad, CA). […] Ki-67-positive cells and total tumor cells were counted by using Image-Pro Plus. The Ki-67 index is expressed as a percentage (the number of Ki-67-positive tumor cells / the total number of the tumor cells × 100). […] The boundary length was calculated by Image-Pro Plus. […]

Another test concerns the target MET (Homo sapiens, UniProt P08581). Kind of test: In vitro kinase assay, MET. In kind it is biochemical. Conditions: assay as described previously [16]. The procedure: as §1
The test system of test [4] is A549-Luc-BM1-implanted tibia. Kind of test: Bone morphometrical analyses by micro-CT. In kind it is in vivo, BALB/c nude mice. Particulars: micro-CT after 4 weeks dosing; TAS-115 200, cabozantinib 15, sunitinib 40, crizotinib 100 mg/kg oral; vs control. The procedure:
On day 29, the mice were euthanized by cervical dislocation under isoflurane anesthesia, and subsequently the A549-Luc-BM1-implanted tibia was removed and was fixed in 4% paraformaldehyde solution. Micro-CT imaging was performed by using Rm_CT2 (Rigaku corporation, Tokyo, Japan) with the following parameters: 90 kV, 160 μA, 3 min exposure, 10 mm field of view (20 μm voxel size). After scanning, 3D reconstruction was performed to produce a series of cross-sectional images by using specific software (3D Viewer Version 3.00.01, Rigaku corporation). In addition, bone mineral density (BMD) and 3D morphometrical primary parameters, including total volume (TV) and bone volume (BV), were calculated by using bone microstructure software (TRI/3D-BON-FCS64, Ratoc System Engineering, Tokyo, Japan). Volumetric BMD (vBMD), which has been reported to be a good index of osteoporosis, was calculated from primary parameters using the following formula: vBMD = BMD × BV / TV.

For test [5], the system named is MET phosphorylation in MDBMs. Kind of test: In vitro MDBM signaling, rhHGF-induced MET phosphorylation. In kind it is cell-based, mouse. Conditions: rhHGF 100 ng/mL 10 min, Western blotting. Here is the method:
as §2

The subject of test [6] is M-CSF dependent bone marrow macrophages (MDBMs). Kind of test: In vitro osteoclast differentiation assay (TRAP activity). In kind it is cell-based, mouse. Particulars: MDBMs with hM-CSF and rhsRANKL for 4 days. The procedure:
To prepare macrophage colony-stimulating factor (M-CSF) dependent bone marrow macrophages (MDBMs), bone marrow cells were obtained from the femurs of male BALB/c mice (CLEA Japan) and adherent cells were cultured with human M-CSF (hM-CSF; 10000 U/mL) for 6 days. MDBMs were collected and cultured with hM-CSF (10000 U/mL) and recombinant human soluble RANKL (rhsRANKL)-GST (5 nM) for 4 days (25000 cells/well in a 96 well flat plate) for induction of differentiation into osteoclasts. Test compounds were then added to the culture media at the indicated concentration. TRAP activities were measured using the commercially available TRACP and ALP Assay Kit (TAKARA BIO INC).

Chain of VEGFR2 (P35968 20-1356, species assumed): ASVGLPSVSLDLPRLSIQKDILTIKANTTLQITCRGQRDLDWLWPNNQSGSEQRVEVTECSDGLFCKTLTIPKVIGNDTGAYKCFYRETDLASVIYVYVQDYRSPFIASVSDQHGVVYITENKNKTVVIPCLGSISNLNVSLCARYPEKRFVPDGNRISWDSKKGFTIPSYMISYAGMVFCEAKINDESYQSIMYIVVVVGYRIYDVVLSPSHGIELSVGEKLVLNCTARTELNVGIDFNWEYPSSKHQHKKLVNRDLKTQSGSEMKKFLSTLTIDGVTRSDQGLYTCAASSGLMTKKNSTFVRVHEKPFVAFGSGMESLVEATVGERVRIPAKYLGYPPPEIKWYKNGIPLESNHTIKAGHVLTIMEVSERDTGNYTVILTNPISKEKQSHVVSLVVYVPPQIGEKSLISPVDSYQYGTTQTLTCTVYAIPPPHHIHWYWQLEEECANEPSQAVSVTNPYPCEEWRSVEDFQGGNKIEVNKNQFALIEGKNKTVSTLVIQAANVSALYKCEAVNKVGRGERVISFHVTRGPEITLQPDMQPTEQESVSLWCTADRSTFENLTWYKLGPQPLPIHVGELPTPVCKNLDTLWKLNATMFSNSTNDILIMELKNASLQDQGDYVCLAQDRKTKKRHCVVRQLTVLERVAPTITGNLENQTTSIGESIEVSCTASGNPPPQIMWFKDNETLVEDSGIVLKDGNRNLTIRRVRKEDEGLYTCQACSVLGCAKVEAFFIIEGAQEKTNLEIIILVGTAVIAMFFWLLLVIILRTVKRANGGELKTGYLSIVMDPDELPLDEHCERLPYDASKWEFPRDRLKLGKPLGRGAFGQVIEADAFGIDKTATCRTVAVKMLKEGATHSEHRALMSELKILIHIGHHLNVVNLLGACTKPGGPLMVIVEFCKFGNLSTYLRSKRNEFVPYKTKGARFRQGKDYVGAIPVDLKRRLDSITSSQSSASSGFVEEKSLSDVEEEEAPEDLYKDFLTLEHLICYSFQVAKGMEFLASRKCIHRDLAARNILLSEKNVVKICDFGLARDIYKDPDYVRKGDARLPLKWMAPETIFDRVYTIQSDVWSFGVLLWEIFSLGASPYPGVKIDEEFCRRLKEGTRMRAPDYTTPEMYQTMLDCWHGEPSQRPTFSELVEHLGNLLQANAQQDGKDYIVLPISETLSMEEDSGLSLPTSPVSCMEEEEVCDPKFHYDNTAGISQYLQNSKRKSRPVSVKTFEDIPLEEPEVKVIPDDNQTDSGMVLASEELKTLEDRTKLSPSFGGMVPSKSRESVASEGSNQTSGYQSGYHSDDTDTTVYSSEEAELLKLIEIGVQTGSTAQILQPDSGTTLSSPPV
Chain of MET (P08581 25-1390): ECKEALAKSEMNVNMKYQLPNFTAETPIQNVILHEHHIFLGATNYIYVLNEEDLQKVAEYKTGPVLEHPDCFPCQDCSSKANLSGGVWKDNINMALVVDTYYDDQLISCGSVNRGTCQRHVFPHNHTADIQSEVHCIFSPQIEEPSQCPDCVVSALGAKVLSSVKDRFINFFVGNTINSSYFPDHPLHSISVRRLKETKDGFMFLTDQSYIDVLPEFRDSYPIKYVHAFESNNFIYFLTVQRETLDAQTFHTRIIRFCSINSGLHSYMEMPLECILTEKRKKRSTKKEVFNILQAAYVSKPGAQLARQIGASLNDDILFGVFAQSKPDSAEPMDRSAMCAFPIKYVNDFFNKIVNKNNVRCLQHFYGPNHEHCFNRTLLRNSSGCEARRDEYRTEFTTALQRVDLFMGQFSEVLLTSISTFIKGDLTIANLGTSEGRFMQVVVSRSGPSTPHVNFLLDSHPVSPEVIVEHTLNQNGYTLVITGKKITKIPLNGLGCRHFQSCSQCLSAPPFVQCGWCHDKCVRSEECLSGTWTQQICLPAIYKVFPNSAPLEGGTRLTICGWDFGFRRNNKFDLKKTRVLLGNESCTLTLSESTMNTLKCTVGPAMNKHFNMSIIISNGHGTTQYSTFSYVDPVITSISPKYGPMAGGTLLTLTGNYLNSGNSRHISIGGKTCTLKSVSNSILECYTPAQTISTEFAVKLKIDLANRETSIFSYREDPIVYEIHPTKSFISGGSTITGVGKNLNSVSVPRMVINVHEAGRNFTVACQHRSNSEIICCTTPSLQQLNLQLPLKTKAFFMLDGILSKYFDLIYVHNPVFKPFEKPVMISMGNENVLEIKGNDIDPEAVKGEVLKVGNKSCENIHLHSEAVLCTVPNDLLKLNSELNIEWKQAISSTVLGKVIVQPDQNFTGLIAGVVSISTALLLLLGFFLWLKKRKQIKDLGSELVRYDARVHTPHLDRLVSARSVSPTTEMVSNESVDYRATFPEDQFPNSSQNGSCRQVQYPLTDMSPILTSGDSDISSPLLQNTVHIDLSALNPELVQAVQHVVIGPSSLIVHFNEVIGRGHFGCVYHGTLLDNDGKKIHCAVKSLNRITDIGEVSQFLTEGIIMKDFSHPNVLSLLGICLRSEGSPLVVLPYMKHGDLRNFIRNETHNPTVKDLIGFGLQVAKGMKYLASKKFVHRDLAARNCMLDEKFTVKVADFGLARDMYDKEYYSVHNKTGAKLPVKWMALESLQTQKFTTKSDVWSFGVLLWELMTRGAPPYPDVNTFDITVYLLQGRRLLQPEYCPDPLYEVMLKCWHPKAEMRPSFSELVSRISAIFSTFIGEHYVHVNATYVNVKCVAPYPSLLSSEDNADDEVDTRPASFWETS

For orientation: IC50 means the point on the concentration scale where inhibition reaches its midpoint. A higher IC50 goes with lower potency. With `CNC(=O)c1cc2c(Oc3ccc(NC(=S)NC(=O)Cc4ccccc4)cc3F)ccnc2cc1OC` [TAS-115, 4-[2-fluoro-4-[[[(2-phenylacetyl)amino]thioxomethyl]amino]-phenoxy] -7-methoxy-N-methyl-6-quinolinecarboxamide], the IC50 at VEGFR2 is 0.03 µM; against MET it was 0.032 µM. Further, in test [1], the “concentration inhibiting the phosphorylation of VEGFR2” value is “greater than 0.03 μM”. The “concentration markedly inhibiting M-CSF-stimulated phosphorylation of FMS, ERK1/2 and AKT” value in test [2] is reported as “greater than 0.03 μM”. Also, the “number of TRAP-positive osteoclasts at tumor-bone boundary” value in test [3] is on record as “significantly decreased”. The “A549-Luc-BM1-induced changes in bone parameters (BV, TV, BMD, vBMD)” value in test [4] was “significantly suppressed all of the changes”. Also, the “concentration inhibiting the phosphorylation of MET” value in test [5] is “greater than 0.03 μM”. Besides, in test [6], the “concentration that potently inhibited / markedly affected RANKL and M-CSF-induced mouse osteoclast formation” value stood at 0.3 µM.
